US11000033B2, “Ketone or oxime compound, and herbicide” (NISSAN CHEMICAL CORPORATION, priority 2014, dated 2021)

Columns and labels:
Type in all cases: in vivo
Monochoria vaginalis = assay: Test Example 1: herbicidal activity, application before weed generation in submerged conditions (symbol C); conditions: application herbicide amount 320 g/ha
Method in brief: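 Application before weed emergence: an aqueous dilution of the emulsion formulation was poured onto the surface of 4 cm-deep floodwater on the day of sowing. Effect was judged after 3 weeks (greenhouse, 25–30 °C).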

[1] = tested on: Echinochloa crus-galli var. crus-galli; assay: Test Example 5: herbicidal effect by foliage application, plastic box (symbol H); conditions: 320 g/ha, 3 weeks after application
Method in brief: (§1)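 Emulsion formulation, diluted with water to the intended rate, was applied uniformly to leaves by small sprayer. Recipients were 14-day greenhouse-grown seedlings (25° C. to 30° C.). Assessment followed at 3 weeks.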

Digitaria ciliaris = assay: Test Example 4: herbicidal effect by soil treatment (symbol F); conditions: 320 g/ha
Method in brief: (§2)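 Seeds were sown in sterilized diluvial soil, covered with about 1.5 cm of soil, and the soil surface was sprayed with a water-diluted emulsion of the compound at a predetermined rate. Plants grew in a greenhouse at 25° C. to 30° C.; effects were scored visually 3 weeks after application.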

Alopecurus myosuroides = assay: Test Example 5: herbicidal effect by foliage application, plastic box (symbol J); conditions: 320 g/ha, 3 weeks after application
Method in brief: as §1

Stellaria media = assay: Test Example 4: herbicidal effect by soil treatment (symbol P); conditions: 320 g/ha
Method in brief: as §2

beet = assay: Test Example 4: effect on crop by soil treatment (symbol f); conditions: 320 g/ha
Method in brief: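 Plants are raised in a greenhouse (25° C. to 30° C.) from spot-sown seed, which sits under about 1.5 cm of sterilized diluvial soil in a box shared with weed species.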

rice plant = assay: Test Example 5: effect on crop by foliage application, plastic box (symbol b); conditions: 320 g/ha, 3 weeks after application
Method in brief: (§3)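 Greenhouse test at 25° C. to 30° C. Seeds of crops and weeds were spot-sown in boxes of sterilized diluvial soil under roughly 1.5 cm soil cover, then grown for foliage treatment.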

rapeseed = assay: Test Example 5: effect on crop by foliage application, plastic box (symbol g); conditions: 320 g/ha, 3 weeks after application
Method in brief: as §3

Apera spica-venti = assay: Test Example 5: herbicidal effect by foliage application, plastic box (symbol L); conditions: 320 g/ha, 3 weeks after application
Method in brief: as §1

Abutilon theophrasti = assay: Test Example 5: herbicidal effect by foliage application, plastic box (symbol M); conditions: 320 g/ha, 3 weeks after application
Method in brief: as §1

Scirpus juncoides = assay: Test Example 2: herbicidal activity, application during weed generation in submerged conditions (symbol B); conditions: Table 23; application herbicide amount 320 g/ha; grade 0-5 by criteria of Test Example 1
Method in brief: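 Scoring of herbicidal effect took place 3 weeks after treatment, using the criteria of the earlier test. Treatment was water-surface application of diluted emulsifiable compound at a set dose. Plants were at one- to two-leaf stage in submerged alluvial soil (4 cm depth), greenhouse 25-30° C.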

[2] = tested on: Echinochloa crus-galli var. crus-galli; assay: Test Example 4: herbicidal effect by soil treatment (symbol H); conditions: 320 g/ha
Method in brief: as §2

Row | SMILES | Herbicidal effect grade, C: Monochoria vaginalis (Monochoria vaginalis) | H: Echinochloa crus-galli var. crus-galli, herbicidal effect (criteria 0-5) [1] | F: Digitaria ciliaris, herbicidal effect grade (Digitaria ciliaris) | J: Alopecurus myosuroides, herbicidal effect (criteria 0-5) (Alopecurus myosuroides) | P: Stellaria media, herbicidal effect grade (Stellaria media) | f: beet, effect grade on crop (beet) | b: directly sowed rice plant, effect on crop (criteria 0-5) (rice plant) | g: rapeseed, effect on crop (criteria 0-5) (rapeseed) | L: Apera spica-venti, herbicidal effect (criteria 0-5) (Apera spica-venti) | M: Abutilon theophrasti, herbicidal effect (criteria 0-5) (Abutilon theophrasti) | Herbicidal effect grade, B: Scirpus juncoides (Scirpus juncoides) | H: Echinochloa crus-galli var. crus-galli, herbicidal effect grade [2]
1 | C=CCOC(=O)OC1=C(c2c(C)cc(C)cc2C)C(=O)C(CC(C)=NOC)C1 (stereo not drawn) [1-146] | 1 (Herbicidal ratio of 5% or higher and lower than 20%) | 5 (Herbicidal ratio of 90% or more (almost completely withered)) | 5 (Herbicidal ratio of 90% or more (almost completely withered)) | 5 (Herbicidal ratio of 90% or more (almost completely withered)) | 1 (Herbicidal ratio of 5% or higher and lower than 20%) | 3 (Herbicidal ratio of 40% or higher and lower than 70%) | 5 (Herbicidal ratio of 90% or more (almost completely withered)) | 5 (Herbicidal ratio of 90% or more (almost completely withered)) | 5 (Herbicidal ratio of 90% or more (almost completely withered)) | 5 (Herbicidal ratio of 90% or more (almost completely withered)) | 5 (Herbicidal ratio of 90% or more (almost completely withered)) | 5 (Herbicidal ratio of 90% or more (almost completely withered))
2 | COCCOC(=O)OC1=C(c2c(C)cc(C)cc2C)C(=O)C(CC(C)=NOC)C1 (stereo not drawn) [1-147] | 1 (Herbicidal ratio of 5% or higher and lower than 20%) | 5 (Herbicidal ratio of 90% or more (almost completely withered)) | 5 (Herbicidal ratio of 90% or more (almost completely withered)) | 5 (Herbicidal ratio of 90% or more (almost completely withered)) | 2 (Herbicidal ratio of 20% or higher and lower than 40%) | 0 (Herbicidal ratio of 5% or lower (almost no effect)) | 5 (Herbicidal ratio of 90% or more (almost completely withered)) | 4 (Herbicidal ratio of 70% or higher and lower than 90%) | 5 (Herbicidal ratio of 90% or more (almost completely withered)) | 4 (Herbicidal ratio of 70% or higher and lower than 90%) | 5 (Herbicidal ratio of 90% or more (almost completely withered)) | 5 (Herbicidal ratio of 90% or more (almost completely withered))
3 | CON=C(C)CC1CC(OC(=O)C(C)(C)c2ccc(Cl)cc2)=C(c2c(C)cc(C)cc2C)C1=O (stereo not drawn) [1-148] | 3 (Herbicidal ratio of 40% or higher and lower than 70%) | 5 (Herbicidal ratio of 90% or more (almost completely withered)) | 5 (Herbicidal ratio of 90% or more (almost completely withered)) | 5 (Herbicidal ratio of 90% or more (almost completely withered)) | 0 (Herbicidal ratio of 5% or lower (almost no effect)) | 0 (Herbicidal ratio of 5% or lower (almost no effect)) | 5 (Herbicidal ratio of 90% or more (almost completely withered)) | 5 (Herbicidal ratio of 90% or more (almost completely withered)) | 5 (Herbicidal ratio of 90% or more (almost completely withered)) | 4 (Herbicidal ratio of 70% or higher and lower than 90%) | 4 (Herbicidal ratio of 70% or higher and lower than 90%) | 5 (Herbicidal ratio of 90% or more (almost completely withered))
